How the values were obtained:
[1] = stated as known; cited from earlier work
[2] = test system: EAE induced by PLP 139-151 peptide in SJL/J mice; assay: EAE induced by PLP 139-151/CFA in SJL/J mice, clinical score 0-5; type: in vivo; settings: for mean clinical score on day 22: Example 5: 100 μl s.c. daily from day 11, PBS control 2.5±0.84
[3] = test system: EAE induced with mouse spinal cord homogenate (MSCH); assay: EAE induced by mouse spinal cord homogenate (MSCH)/CFA in SJL/J mice; type: in vivo; settings: for clinical severity: 100 μl s.c. daily from day 4, all control mice had died by day 15, FIG. 6
[4] = Example 2: 100 μl i.p. daily day 0-50, followed until day 70

CCCCCCCC/C=C\CCCCCCCC(=O)OCC [EOA, ethyl oleate]
toxicity when injected into humans [1]: non-toxic when injected into humans
mice that developed EAE (incidence) ([2]; Example 1: EOA 100 μl s.c. daily day 0-11, then days 13, 15, 17, 20, 23, 26, untreated control 5 out of 5): 2 out of the 5
mean maximal severity (clinical score 0-5) ([2]; Example 1: EOA 100 μl s.c. from day 0, control 1.67±0.29): 0.5±0.32
effect on clinical severity and incidence of EAE ([2]; Example 1: s.c. from day 0, FIG. 1): significantly reduced clinical severity and incidence of EAE
mean maximal clinical score (0-5) [2, 4]: 0.63±0.28
mice that developed EAE (incidence) [2, 4]: 5 out of 8
time mice remained stable after cessation of treatment ([2]; Example 2: i.p. daily day 0-50, treatment stopped day 50): 20 days
maximal mean score at which disease progression was arrested ([2]; Example 4: 100 μl i.p. daily from day 12 (clinical onset) to day 35, control 3.5±0.69): 0.83±0.53
mean maximal clinical score, partially recovered subgroups (EOA-P, IFA-P) ([2]; Example 4: daily i.p. treatment reinstated from day 40 for 40 days, FIG. 4C, untreated control 3.1±0.7): 1.3±0.19
therapeutic effect on ongoing EAE ([2]; Example 4: i.p. daily day 12-35, FIG. 4A): immediately arrested the worsening of the clinical symptoms of EAE
state on day 40 after withholding treatment ([2]; Example 4: i.p. daily day 12-35, then no treatment): remained stable with no evidence of disease exacerbation or development of relapses
time to complete reversal of clinical symptoms after treatment was initiated ([2]; Example 4: i.p. daily from day 12): 8 to 10 days
mean maximal clinical score on days 20-21 ([2]; Example 4: i.p. daily from day 12, control 3.5±0.69): 0.17±0.11
effect of second course of treatment on clinical signs ([2]; Example 4: partially recovered subgroups, daily i.p. from day 40): no further ameliorating effect
mean clinical score on day 22 [2]: 0.83±0.40
clinical severity [3]: markedly reduced clinical severity

mannide mono-oleate [MMO]
toxicity when injected into humans [1]: non-toxic when injected into humans
effect on disease development ([2]; Example 3: 100 μl i.p. daily from day 0, FIG. 3): completely abrogated disease development
mean maximal clinical score on day 40 ([2]; Example 3: i.p. daily day 0-25, 15 days after injections stopped, control 2.6±0.99): 0.17±0.11
mean maximal clinical score on day 73 ([2]; Example 3: i.p. daily day 0-25, 48 days after injections stopped, control 3.2±0.75): 0.67±0.44
mice in which very mild clinical signs appeared after treatment was discontinued ([2]; Example 3: i.p. daily day 0-25, from day 25 on): 3 out of the 6
clinical signs on day 20 ([2]; Example 3: i.p. daily from day 0, all 6 treated mice, control score 3.4±0.69): free of any clinical sign of EAE
mean clinical score on day 22 [2]: 0.08±0.08
disease development ([3]; 100 μl s.c. daily from day 4, FIG. 6): almost complete abrogation of disease development
clinical severity [3]: markedly reduced clinical severity

Source: patent publication US20040186072A1, “Use of esters of long-chain fatty acids for treatment of autoimmune diseases” (priority 2001, published 2004)
